According to PMC7024557, “Synthesis of Novel Structural Hybrids between Aza-Heterocycles and Azelaic Acid Moiety with a Specific Activity on Osteosarcoma Cells” (Molecules, 2020):
One block for each molecule: values may come before it.

Columns and labels:
[1] = test system: U2OS cells; assay: Hoechst 33,342 nuclear staining, confocal microscopy; assay type: cell-based, human; conditions: 24 h
Description: These effects induced by the above compounds on histone acetylation are not associated with events involved in apoptotic death.
Nuclear morphology was assayed using a specific dye Hoechst 33,342. U2OS treated cells were washed, fixed, and then stained with 1 µM Hoechst 33,342 (Sigma-Aldrich, St Louis, MO, USA) for 15 min. Samples were embedded in Mowiol and analyzed using a Nikon C1s confocal laser-scanning microscope, equipped with a Nikon PlanApo 40×, 1.4 numerical aperture (NA) oil immersion lens. Images were quantified by ImageJ software (IMAJ 1.x).

[2] = test system: U2OS cells; assay: Cell-cycle assay by flow cytometry (PI fluorescence, forward scatter); assay type: cell-based, human; conditions: 24 h; for mean channel of FS distribution (nuclear size): U2OS nuclei, 35 μM of 6, 50 μM of 5a or 8a, control cells 730; for effect on cell-cycle progression: U2OS, 35 μM of compound 6, 50 μM of 5a, 50 μM of 8a
Description: To infer whether their effects were due to interference with cell-cycle progression, DNA profiles of cultured cells were examined by flow cytometry. […] As clear from Figure 3, the nuclei in all cell-cycle phases were affected.
For the cell-cycle assay, U2OS cells were treated for 24 h with 35 μM of compound 6, 50 μM of 5a, or 50 μM of 8a, detached with 0.11% trypsin (Sigma-Aldrich, S.Louis, MO, USA)/0.02% ethylenediaminetetraacetic acid (EDTA) (Sigma-Aldrich, S.Louis, MO, USA), washed in PBS, and centrifuged. The pellet was resuspended in 0.01% Nonidet P-40 (Sigma-Aldrich, S.Louis, MO, USA), 10 μg/mL RNase (Sigma-Aldrich, S.Louis, MO), 0.1% sodium citrate, and 50 μg/mL propidium iodide (PI) (Sigma-Aldrich, S.Louis, MO, USA), for 30 min at room temperature in the dark. PI fluorescence and forward scatter (FS) signals were analyzed using a Beckman Coulter Epics XL-MCL flow cytometer. DNA distribution in the cell cycle was analyzed by the MODFIT 5.0 software. As the signal collected by a multichannel analyzer, the mean of the FS distribution is expressed as mean channel.

[3] = test system: acetylated histones H2/H3 and H4 in U2OS cells; assay: Histone acetylation, Western blot with anti-acetyl lysine antibody; assay type: cell-based, human; conditions: 6 h, densitometry normalized on histone H1, vs control
Excerpt: To identify acetylated histones, we analyzed the nuclear cell lysates by Western blot using a 15% polyacrylamide gel electrophoresis. After electrophoresis, the proteins were transferred to a nitrocellulose membrane and then immunoblotted with an anti-acetyl lysine monoclonal antibody. […] Differences in the density of bands are thought to reflect differences in protein acetylation levels. Histone acetylation signals were quantified by densitometry and normalized on histone H1. Histones H2/H3 acetylation increased by 28% upon treatment with 6 for 6 h with no effect on H4 acetylation, whereas compound 8a induced hyperacetylation by 30% on histone H4 only.
U2OS were cultured with 5a, 6, or 8a, for 6 h, and the histone fraction was immediately extracted. Cells were harvested using 0.11% trypsin and 0.02% EDTA, washed twice with 10 mM sodium butyrate (NaBu) in PBS, and nuclei were isolated according to Amellem et al.. The nuclear pellet was suspended in 0.1 mL of ice-cold water using a Vortex mixer, and concentrated H2SO4 was added to the suspension to give a final concentration of 0.4 N. After incubation at 4 °C for 1 h, the suspension was centrifuged for 5 min at 14,000× g, and the supernatant was taken and mixed with 1 mL of acetone. After overnight incubation at −20 °C, the coagulate material was collected by microcentrifugation and air-dried, and proteins were quantified using a protein assay kit (Bio-Rad, Hercules, CA, USA). Histones were analyzed as previously described. Briefly, histones were resolved by 15% SDS-PAGE and immunoblotted with anti-acetylated lysine antibody (Cell Signaling Technology, Beverly, MA, USA); the detection of immunoreactive bands was performed with a secondary antibody conjugated with horseradish peroxidase and developed with an enhanced chemiluminescence (ECL) system, developed with the enhanced chemiluminescence system Clarity Western (Bio-Rad, Hercules, CA, USA), and quantification was done by Fluor-S Max MultiImager (Bio-Rad). Histone acetylation signals were quantified by densitometry and normalized on histone H1.

[4] = test system: HT29 (human colon adenocarcinoma); assay: MTT assay, cell viability; assay type: cell-based; conditions: HT-29, after 48 h of treatment, n.a. = non active
Excerpt: (§1) Cell lines included in the evaluation of toxicity profiles were malignant U2OS, HT29, PC3, and IGROV1, and a normal human adult fibroblast cell line HDFa.
(§2) The human prostate cancer (PC3), human colon cancer (HT29), human bone osteosarcoma (U2OS), and normal human adult fibroblast (HDFa) cell lines were purchased from American Type Culture Collection (ATCC, Manassas, VA, USA), while the human ovarian cancer cell line (IGROV1) was kindly provided by Istituto Nazionale Tumori (IRCCS, Milano, Italy). Cells were cultured in Roswell Park Memorial Institute (RPMI)-1640 medium (Labtek Eurobio, Milan, Italy), supplemented with 10% fetal calf serum (FCS; Euroclone, Milano, Italy) and 2mM L-glutamine (Sigma-Aldrich, Milano, Italy), at 37 °C and 5% CO2 atmosphere. The compounds were dissolved in dimethyl sulfoxide (DMSO) in a 60 mM stock solution. In cell treatments, the final DMSO concentration never exceeded 0.1%.
(§3) U2OS were seeded at 1.5 × 10^4 cells/well in a 96-well culture plastic plate (Orange Scientific, Braine-l’Alleud, Belgium) and, after 24 h of growth, cells were exposed for additional 48 h to increasing concentrations of compounds (0.1 µM and […]) solubilized in RPMI-1640 medium. On the day of measurement, the culture medium was replaced with 0.1 mL of 3-(4,5-dimethylthiazolyl-2)-2,5-diphenyltetrazolium bromide (MTT, Sigma-Aldrich) dissolved in phosphate-buffered saline (PBS) at the concentration of 0.2 mg/mL, and samples were incubated for 2 h at 37 °C. To dissolve the blue-violet formazan salt crystals formed, 0.1 mL of isopropyl alcohol was added to each well and incubated for 20 min. The absorbance at 570 nm was measured using a multiwell plate reader (Wallac Victor2, PerkinElmer, Milano, Italia), and viability was compared with that of untreated cells, used as controls.

[5] = test system: U2OS (human osteosarcoma); assay: MTT assay, cell viability; assay type: cell-based; conditions: for IC50: Homo sapiens, U2OS, after 48 h of treatment, n.a. = non active; for sensitivity of U2OS to the compound (IC50 analysis): only U2OS among tumor cell lines
Excerpt: as §1, §2, §3

[6] = test system: human osteosarcoma growth; design: method as in PMID 24344034, PMID 30697272; conditions: ref [32],[33]; read-out: IC50, inhibition of human osteosarcoma growth; cited from earlier work
[7] = test system: PC3 (human prostatic carcinoma); assay: MTT assay, cell viability; assay type: cell-based; conditions: after 48 h of treatment, n.a. = non active
Excerpt: as §1, §2, §3

[8] = test system: IGROV1 (human ovarian carcinoma); assay: MTT assay, cell viability; assay type: cell-based; conditions: IGROV-1, after 48 h of treatment, n.a. = non active
Excerpt: as §1, §2, §3

[9] = test system: U2OS cell line; design: method as in PMID 31646829, PMID 26298721; conditions: ref [30],[31]; cited from earlier work

- IC50 [4]: > 100 µM
- IC50 [5]: 35 µM
- sensitivity of U2OS to the compound (IC50 analysis) [5]: sensitive
SMILES: COC(=O)CCCCCCCC(=O)N(C(=O)CCCCCCCC(=O)OC)c1ncccn1 [compound 6, Dimethyl 9,9’-(pyrimidin-2-ylazanediyl)bis(9-oxononanoate)]
- nuclear morphology by Hoechst 33,342 staining [1]: increase in nuclear size
- mean channel of FS distribution (nuclear size) [2]: 905
- effect on cell-cycle progression [2]: increase in the gap 0/gap 1 (G0/G1) fraction, with concomitant decrease in the G2/mitosis (M) phase
- increase of histone H4 acetylation [3]: no effect
- increase of histones H2/H3 acetylation [3]: 28%

- melting point: 59 to 60 °C
- IC50 [4]: > 100 µM
- IC50 [5]: > 100 µM
SMILES: COC(=O)CCCCCCCC(=O)Nc1ccccn1 [4a, Methyl 9-oxo-9-(pyridin-2-ylamino)nonanoate]

SMILES: CC(/C=C/C(=O)NO)=C\[C@@H](C)C(=O)c1ccc(N(C)C)cc1 [trichostatin A]
- IC50 [6]: 0.5 µM

- melting point: 75.5 to 77.7 °C
- IC50 [4]: > 100 µM
- IC50 [5]: > 100 µM
SMILES: COC(=O)CCCCCCCC(=O)Nc1cccnc1 [4b, Methyl 9-oxo-9-(pyridin-3-ylamino)nonanoate]

- melting point: 78.6 to 80.2 °C
- IC50 [7]: > 100 µM
- IC50 [8]: > 100 µM
- IC50 [4]: > 100 µM
SMILES: COC(=O)CCCCCCCC(=O)Nc1cncnc1 [5c, Methyl 9-oxo-9-(pyrimidin-5-ylamino)nonanoate]

SMILES: COc1cccc2c1C(=O)c1c(O)c3c(c(O)c1C2=O)C[C@@](O)(C(=O)CO)C[C@@H]3O[C@H]1C[C@H](N)[C@H](O)[C@H](C)O1 [doxorubicin]
- IC50 [9]: 0.5 µM

- melting point: 92 to 94.2 °C
- IC50 [8]: > 100 µM
- IC50 [5]: > 100 µM
SMILES: COC(=O)CCCCCCCC(=O)Nc1ccncn1 [5b, Methyl 9-oxo-9-(pyrimidin-4-ylamino)nonanoate]

- IC50 [7]: > 100 µM
- IC50 [4]: > 100 µM
- IC50 [5]: 50 µM
- sensitivity of U2OS to the compound (IC50 analysis) [5]: sensitive
SMILES: COC(=O)CCCCCCCC(=O)n1cnc2ccccc21 [8a, Methyl 9-(1H-benzo[d]imidazol-1-yl)-9-oxononanoate]
- nuclear morphology by Hoechst 33,342 staining [1]: dim staining of nuclei
- mean channel of FS distribution (nuclear size) [2]: 780
- effect on cell-cycle progression [2]: slight accumulation in the synthesis (S) phase
- increase of histone H4 acetylation [3]: 30%

SMILES: CCCC(=O)[O-].[Na+] [sodium butyrate]
- IC50 [6]: 5 µM

- melting point: 83 to 85 °C
- IC50 [5]: > 100 µM
SMILES: COC(=O)CCCCCCCC(=O)Nc1ccncc1 [4c, Methyl 9-oxo-9-(pyridin-4-ylamino)nonanoate]

SMILES: N.N.[Cl][Pt][Cl] [Cisplatin]
- IC50 [9]: 1.67 µM

- melting point: 55.5 to 57.2 °C
- IC50 [8]: > 100 µM
SMILES: COC(=O)CCCCCCCC(=O)n1nnc2ccccc21 [8b, Methyl 9-(1H-benzo[d][1,2,3]triazol-1-yl)-9-oxononanoate]

SMILES: O=c1[nH]cc(F)c(=O)[nH]1 [5-fluorouracile]
- IC50 [9]: 0.3 µM

- IC50 [5]: 50 µM
- sensitivity of U2OS to the compound (IC50 analysis) [5]: sensitive
SMILES: COC(=O)CCCCCCCC(=O)Nc1ncccn1 [5a, Methyl 9-oxo-9-(pyrimidin-2-ylamino)nonanoate]
- nuclear morphology by Hoechst 33,342 staining [1]: dim staining of nuclei
- mean channel of FS distribution (nuclear size) [2]: 735
- effect on cell-cycle progression [2]: slight accumulation in the synthesis (S) phase
- increase of histone H4 acetylation [3]: 22%
- increase of histones H2/H3 acetylation [3]: 89%
